Laboratory results reported in ChEMBL document CHEMBL4706557, “Synthesis and in vitro and in vivo biological evaluation of novel derivatives of flexicaulin A as antiproliferative agents” (Eur J Med Chem, 2020).
The source made the active and inactive calls. The calls are words filed in the database; no cut-off is given here.

Experiments:
[1] = Toxicity in nude BALB/c mouse xenografted with human EC109 cells assessed as change in body weight at 20 to 40 mg/kg, ip administered every day for 14 days; format: organism-based; conditions: in vivo, 336 h, dose 20-40 mg/kg, time 14 day
ECa-109 cell line [2] = assay: Antitumor activity against human EC109 cells xenografted in BALB/c mouse assessed as reduction in tumor weight at 20 mg/kg, ip administered every day for 14 days; format: functional, organism-based; conditions: time 14.0 day
ECa-109 cell line [3] = assay: Antiproliferative activity against human EC109 cells assessed as inhibition of cell growth incubated for 72 hrs by SRB assay; format: functional, cell-based; conditions: ECa-109, 72 h
TE-1 = assay: Antiproliferative activity against human TE-1 cells assessed as inhibition of cell growth incubated for 72 hrs by SRB assay; format: functional, cell-based; conditions: TE-1, 72 h
MGC-803 = assay: Antiproliferative activity against human MGC-803 cells assessed as inhibition of cell growth incubated for 72 hrs by SRB assay; format: functional, cell-based; conditions: MGC-803, 72 h
GES1 = assay: Cytotoxicity against human GES1 cells assessed as reduction in survival rate at 0 to 8 uM by SRB assay; format: cell-based; conditions: ges1, 8 µM, TDE = time-dependent effect, dose 0-8 µM
HUVEC = assay: Cytotoxicity against HUVEC assessed as reduction in survival rate at 0 to 8 uM by SRB assay; format: cell-based; conditions: human, TDE = time-dependent effect, dose 0-8 µM
ECa-109 cell line [4] = assay: Induction of apoptosis in human EC-109 cells assessed as apoptotic rate at 1.5 uM after 24 hrs by Annexin V-FITC/propidium iodide staining based flow cytometry (reference value: 5.3 %); format: functional
ECa-109 cell line [5] = assay: Induction of apoptosis in human EC109 cells assessed as increase in cleaved caspase 9 expression after 24 hrs by Western blot analysis; format: functional, cell-based
ECa-109 cell line [6] = assay: Induction of apoptosis in human EC109 cells assessed as increase in Bad expression after 24 hrs by Western blot analysis; format: functional, cell-based
ECa-109 cell line [7] = assay: Induction of apoptosis in human EC109 cells assessed as increase in BimL expression after 24 hrs by Western blot analysis; format: functional, cell-based
ECa-109 cell line [8] = assay: Induction of apoptosis in human EC109 cells assessed as increase in Bax/Bcl2 ratio at 0.75 to 3 uM after 24 hrs by Western blot analysis; format: functional, cell-based; conditions: dose 0.75-3 µM
ECa-109 cell line [9] = assay: Induction of apoptosis in human EC109 cells assessed as increase in cytochrome C protein expression incubated for 24 hrs by Western blot analysis; format: functional, cell-based
ECa-109 cell line [10] = assay: Induction of apoptosis in human EC109 cells assessed as increase in intracellular ROS level at 1.5 to 3 uM incubated for 24 hrs by DCFH-DA staining based flow cytometry analysis; format: functional, cell-based; conditions: dose 1.5-3 µM
ECa-109 cell line [11] = assay: Antiproliferative activity against human EC109 cells assessed as survival rate preincubated with N-acetylcysteine for 4 hrs followed by compound addition and measured after 24 hrs by SRB assay; format: functional
ECa-109 cell line [12] = assay: Induction of morphological changes in human EC109 cells assessed as decrease in number of cells in presence of N-acetylcysteine; format: functional, cell-based
ECa-109 cell line [13] = assay: Induction of apoptosis in human EC-109 cells assessed as apoptotic rate at 3 uM after 48 hrs by Annexin V-FITC/propidium iodide staining based flow cytometry (reference value: 3.8 %); format: functional
ECa-109 cell line [14] = assay: Induction of apoptosis in human EC-109 cells assessed as apoptotic rate at 3 uM preincubated with N-acetylcysteine for 4 hrs followed by compound addition and measured after 48 hrs by Annexin V-FITC/propidium iodide staining based flow cytometry (reference value: 3.8 %); format: functional
ECa-109 cell line [15] = assay: Induction of apoptosis in human EC109 cells assessed as change in phosphorylated JNK expression at 3 uM incubated for 24 hrs in presence of N-acetylcysteine by Western blot analysis; format: functional, cell-based
ECa-109 cell line [16] = assay: Induction of apoptosis in human EC-109 cells xenografted in nude BALB/c mouse assessed as nuclear shrinkage at 20 to 40 mg/kg, ip administered once daily for 14 days by H and E staining based histopathological analysis; format: functional, organism-based; conditions: dose 20-40 mg/kg, time 14.0 day
ECa-109 cell line [17] = assay: Induction of apoptosis in human EC-109 cells xenografted in BALB/c mouse assessed as increase in phosphorylated MKK4 in tumor tissue at 20 to 40 mg/kg, ip QD for 14 days by Western blotting analysis; format: functional, organism-based; conditions: dose 20-40 mg/kg, time 14.0 day
[18] = Toxicity in BALB/c mouse assessed as effect on WBC level at 20 mg/kg, ip administered once daily for 14 days (reference value: 4.42 +/- 0.79 10^9/L); format: organism-based; conditions: in vivo, 336 h, time 14 day
[19] = Toxicity in BALB/c mouse assessed as MCV at 20 mg/kg, ip administered once daily for 14 days (reference value: 49.90 +/- 0.37 fL); format: organism-based; conditions: in vivo, 336 h, time 14 day
[20] = Toxicity in BALB/c mouse assessed as RDW at 20 mg/kg, ip administered once daily for 14 days (reference value: 14.18 +/- 0.26 %); format: organism-based; conditions: in vivo, 336 h, time 14 day
[21] = Toxicity in BALB/c mouse assessed as RDW at 40 mg/kg, ip administered once daily for 14 days (reference value: 14.18 +/- 0.26 %); format: organism-based; conditions: in vivo, 336 h, time 14 day
[22] = Toxicity in BALB/c mouse assessed as PLT at 40 mg/kg, ip administered once daily for 14 days (reference value: 788.60 +/- 71.35 10^9/L); format: organism-based; conditions: in vivo, 336 h, time 14 day
[23] = Toxicity in BALB/c mouse assessed as abnormalities in heart at 20 to 40 mg/kg, ip administered once daily for 14 days by HE staining based assay; format: organism-based; conditions: in vivo, 336 h, dose 20-40 mg/kg, time 14 day

Compound: C=C1C(=O)[C@@]23[C@H](O)C[C@@H]4C(C)(C)CCC[C@@]4(COC(C)=O)[C@@H]2[C@@H](O)C[C@H]1[C@H]3OC(=O)c1ccc(CCl)cc1
- Activity [1]: Non-Toxic
- inhibition (ECa-109 cell line [2]): Active
- IC50 (ECa-109 cell line [3]): 0.13 µM
- IC50 (TE-1): 0.27 µM
- IC50 (MGC-803): 0.2 µM
- inhibition (INH) (GES1): Tde
- Activity (HUVEC): Tde
- Activity (ECa-109 cell line [4]): 28.2%
- Activity (ECa-109 cell line [5]): Dose-dependent effect
- Activity (ECa-109 cell line [6]): Dose-dependent effect
- Activity (ECa-109 cell line [7]): Dose-dependent effect
- Activity (ECa-109 cell line [8]): Active
- Activity (ECa-109 cell line [9]): Dose-dependent effect
- Activity (ECa-109 cell line [10]): Active
- Activity (ECa-109 cell line [11]): 90%
- Activity (ECa-109 cell line [12]): inactive
- Activity (ECa-109 cell line [13]): 88.2%
- Activity (ECa-109 cell line [14]): 4.8%
- Activity (ECa-109 cell line [15]): inactive
- Activity (ECa-109 cell line [16]): Active
- Activity (ECa-109 cell line [17]): Active
- Activity [18]: 5.02 10^9/L
- Activity [19]: 49.5 fL
- Activity [20]: 14.32%
- Activity [21]: 14.73%
- Activity [22]: 832.8 10^9/L
- Activity [23]: Non-Toxic
